Measurements: patent US7468364B2, “Carbapenem compounds” (Dainippon Sumitomo Pharma Co., Ltd., priority 2003, dated 2008)

Experiment: Oral absorption test in rats
Format: in vivo
Settings: male SD rats, oral 10 mg value/kg (as active substance)
Protocol: A compound of Example 1 of the present invention and a pivaloyloxymethyl ester derivative of the compound 32, carbapenem in which para-hydroxyphenyl group is directly substituted, which is described in the Journal of Medicinal Chemistry, Vol. 30, p 871-880, 1987 (which is one of the prior arts which are most relevant to the present invention) were orally administered to mice or rats. The concentration of the active substance in serum was measured by bioassay, and absolute bioavailability was compared respectively.
The test sample was prepared in the same manner as in the oral absorption test in mice. […] To thus treated rats were orally administered the test sample (10 mg value/kg (calculated into active substance)). […] The concentration of the active substance in the serum was measured by bioassay in the same manner as in the oral absorption in mice. […]
In regard to the test sample, the value of the concentration of the active substance in serum was plotted to the hours after administration, and calculated the concentration of the active substance-area under hours curve (AUC) or calculated reducing area under hours curve (AUC) from the concentration of the active substance. On the other hand, AUC when the active substance was intravenously administered was calculated as mentioned above. […]
The absolute availability (BA) was calculated based on the above formula.

oral absorbability: did not show oral absorbability
Compound: C[C@@H](O)[C@H]1C(=O)N2C(C(=O)OCOC(=O)C(C)(C)C)=C(c3ccc(O)cc3)C[C@H]12 [comparative compound]
